In article PMC11002876, “KcsA-Kv1.x chimeras with complete ligand-binding sites provide improved predictivity for screening selective Kv1.x blockers” (The Journal of Biological Chemistry, 2024):
Entries after “also recorded” stand apart in the source; their conditions may differ. Where a SMILES comes first, the peptide text is derived from it.

System: human Kv1.1 channel (hKv1.1)
Assay: Whole-cell patch-clamp, hKv1.1-expressing CHO cells
Type: cell-based
Conditions: see Table 1 and Fig. S3; 1 nM peptide in patch-clamp
Procedure: Chinese Hamster Ovarian cells were grown in Dulbecco’s modified Eagle’s medium–high glucose supplemented with 10% FBS, 2 mM L-glutamine, 100 U/ml penicillin-g, and 100 μg/ml streptomycin (Invitrogen) at 37 °C in a 5% CO2 and 95% air humidified atmosphere. Cells were passaged twice per week following a 5 min incubation in PBS containing 0.2 g/L EDTA. Chinese Hamster Ovarian cells were transiently transfected with plasmids encoding human Kv1.1 (hKCNA1 gene) and human Kv1.2 (hKCNA2 gene) in pCMV6-AC-GFP plasmid (RG211000 and RC222200, OriGene Technologies) using Lipofectamine 2000 (Invitrogen) following the manufacturer’s protocol, then cultured under standard conditions. Transfected cells were washed twice with 2 ml of extracellular solution (ECS, see below) and replated onto 35 mm polystyrene cell culture dishes (Cellstar, Greiner Bio-One) before the patch-clamp experiments. […] In general, currents were recorded 24 to 36 h after transfection.
Conventional whole-cell patch-clamp electrophysiology was used to record ionic currents. Micropipettes were pulled from GC150F-7.5 borosilicate capillaries (Harvard Apparatus) with tip diameters between 0.5 and 1 μm resulting in a tip resistance of 2 to 8 MΩ in the extracellular (bath) solution. […]
Native peptides, phage-expressed peptides, and positive controls used for them were dissolved in ECS supplemented with 0.1 mg/ml bovine serum albumin (BSA; Sigma-Aldrich Hungary). Bath perfusion around the measured cell with different extracellular solutions was achieved using a gravity flow micro perfusion system using a rate of 0.5 ml/min. […]
Voltage protocols: For measurement of Kv1.1 to 1.3 currents, voltage steps to +50 mV were applied from a holding potential of −120 mV and the peak current was measured every 15 s. […] The remaining current fraction at a given molar concentration was calculated as I/I0, where I0 is the peak current in the absence and I is the peak current at equilibrium block or […] after ∼2 min perfusion by the investigated peptide/phage.

Compound	potency ranking, Kv1.1
CC[C@H](C)[C@H](NC(=O)[C@H](CCC(=O)O)NC(=O)[C@@H](NC(=O)CN)C(C)C)C(=O)N[C@@H](CC(N)=O)C(=O)N[C@H](C(=O)N[C@@H](CCCCN)C(=O)N[C@H]1CSSC[C@@H]2NC(=O)[C@H](CCCCN)NC(=O)CNC(=O)[C@H](Cc3ccccc3)NC(=O)[C@H](CCCNC(=N)N)NC(=O)[C@H](CCSC)NC(=O)CNC(=O)[C@H](C)NC(=O)[C@H](CC(=O)O)NC(=O)[C@H](CCCCN)NC(=O)[C@@H]3CSSC[C@@H](C(=O)N[C@H](C(=O)N4CCC[C@H]4C(=O)N[C@@H](CCCCN)C(=O)O)[C@@H](C)O)NC(=O)[C@H](Cc4c[nH]cn4)NC(=O)[C@H](CSSC[C@H](NC(=O)[C@H](CCC(N)=O)NC(=O)[C@@H]4CCCN4C(=O)[C@H](CO)NC(=O)CNC(=O)[C@H](CO)NC1=O)C(=O)N[C@@H](CC(C)C)C(=O)N[C@@H](CCCCN)C(=O)N1CCC[C@H]1C(=O)N3)NC(=O)[C@H](CCCCN)NC(=O)[C@H](CCCNC(=N)N)NC(=O)[C@H](CC(N)=O)NC(=O)[C@H](CCSC)NC2=O)C(C)C [KTX1, Kaliotoxin-1]	ShK > KTX1 >> MTX; also recorded: ShK > KTX1 > MTX
CC[C@H](C)[C@@H]1NC(=O)[C@@H]2CSSC[C@H](NC(=O)[C@H](CO)NC(=O)[C@@H](N)C(C)C)C(=O)N[C@@H]([C@@H](C)O)C(=O)NCC(=O)N[C@@H](CO)C(=O)N[C@@H](CCCCN)C(=O)N[C@@H](CC(=O)O)C(=O)N[C@@H](CSSC[C@@H](C(=O)N[C@@H](CCCCN)C(=O)N[C@H]3CSSC[C@@H](C(N)=O)NC(=O)CNC(=O)[C@H](Cc4ccc(O)cc4)NC3=O)NC(=O)[C@H](CO)NC(=O)[C@H](CCCCN)NC(=O)[C@H](CC(N)=O)NC1=O)C(=O)N[C@@H](Cc1ccc(O)cc1)C(=O)N[C@@H](C)C(=O)N1CCC[C@H]1C(=O)N[C@H]1CSSC[C@H](NC(=O)CNC(=O)[C@H]([C@@H](C)O)NC(=O)[C@H](CCC(N)=O)NC(=O)[C@H](CCCCN)NC(=O)[C@H](CCCNC(=N)N)NC1=O)C(=O)N1CCC[C@H]1C(=O)N[C@@H](CC(N)=O)C(=O)N[C@@H](C)C(=O)N[C@@H](CCCCN)C(=O)N2 [MTX, Maurotoxin] (HELM PEPTIDE1{V.S.C.T.G.S.K.D.C.Y.A.P.C.R.K.Q.T.G.C.P.N.A.K.C.I.N.K.S.C.K.C.Y.G.C.[am]}$PEPTIDE1,PEPTIDE1,3:R3-24:R3|PEPTIDE1,PEPTIDE1,9:R3-29:R3|PEPTIDE1,PEPTIDE1,13:R3-19:R3|PEPTIDE1,PEPTIDE1,31:R3-34:R3$$$V2.0; N-terminus and C-terminus assumed)	ShK > KTX1 >> MTX; also recorded: ShK > KTX1 > MTX
CC[C@H](C)[C@@H]1NC(=O)[C@@H](NC(=O)[C@H](CO)NC(=O)[C@@H](N)CCCNC(=N)N)CSSC[C@@H](C(=O)O)NC(=O)[C@H]([C@@H](C)O)NC(=O)CNC(=O)[C@@H]2CSSC[C@@H]3NC(=O)[C@H](CCC(N)=O)NC(=O)[C@H](Cc4ccccc4)NC(=O)[C@H](C)NC(=O)[C@H]([C@@H](C)O)NC(=O)[C@H](CSSC[C@H](NC(=O)[C@H](Cc4ccccc4)NC(=O)[C@H](CO)NC(=O)[C@H](CC(C)C)NC(=O)[C@H](CCCNC(=N)N)NC(=O)[C@H](Cc4ccc(O)cc4)NC(=O)[C@H](CCCCN)NC(=O)[C@H](CCSC)NC(=O)[C@H](CO)NC(=O)[C@H](Cc4c[nH]cn4)NC(=O)[C@H](CCCCN)NC3=O)C(=O)N[C@@H](CCCNC(=N)N)C(=O)N[C@@H](CCCCN)C(=O)N[C@@H]([C@@H](C)O)C(=O)N2)NC(=O)[C@H](CCCNC(=N)N)NC(=O)[C@H](CO)NC(=O)[C@H](CCCCN)NC(=O)[C@@H]2CCCN2C(=O)[C@H]([C@@H](C)CC)NC(=O)[C@H]([C@@H](C)O)NC(=O)[C@H](CC(=O)O)NC1=O [ShK, Stichodactyla toxin]	ShK > KTX1 >> MTX; also recorded: ShK > KTX1 > MTX
